From ChEMBL document CHEMBL2396528, “Synthesis of new conjugated coumarin-benzimidazole hybrids and their anticancer activity” (2013)

test system: MDA-MB-468; assay: Cytotoxicity against human MDA-MB-468 cells assessed as growth inhibition at 10 uM after 48 hrs by SRB assay relative to control; assay type: functional; details: MDA-MB-468, 48 h, read-out: GI

For `O=c1oc2cc(NCCN3CCOCC3)ccc2cc1-c1nc2ccccc2[nH]1`, which inhibition of growth at 10 µM is on record?
The inhibition of growth at 10 µM was under 20%.

test system: Hs-578T; assay: Cytotoxicity against human Hs578T cells assessed as growth inhibition at 10 uM after 48 hrs by SRB assay relative to control; assay type: functional; details: read-out: GI

For `O=c1oc2cc(NCCN3CCOCC3)ccc2cc1-c1nc2ccccc2[nH]1`, which inhibition of growth at 10 µM is on record?
The inhibition of growth at 10 µM was under 20%.

test system: MDA-MB-231; assay: Cytotoxicity against human MDA-MB-231 cells assessed as growth inhibition at 10 uM after 48 hrs by SRB assay relative to control; assay type: functional; details: MDA-MB-231, 48 h, read-out: GI

With `O=c1oc2cc(NCCN3CCOCC3)ccc2cc1-c1nc2ccccc2[nH]1` as the molecule, how does the inhibition of growth at 10 µM read?
Its inhibition of growth at 10 µM is under 20%.

test system: MCF7; assay: Cytotoxicity against human MCF7 cells assessed as growth inhibition at 10 uM after 48 hrs by SRB assay relative to control; assay type: functional; details: MCF7, 48 h, read-out: GI

Which inhibition of growth at 10 µM does the source give for `O=c1oc2cc(NCCN3CCOCC3)ccc2cc1-c1nc2ccccc2[nH]1` here?
Its inhibition of growth at 10 µM is under 20%.

test system: DU-145; assay: Cytotoxicity against human DU145 cells assessed as growth inhibition at 10 uM after 48 hrs by SRB assay relative to control; assay type: functional; details: DU-145, 48 h, read-out: GI

For `O=c1oc2cc(NCCN3CCOCC3)ccc2cc1-c1nc2ccccc2[nH]1`, which inhibition of growth at 10 µM is on record?
Its inhibition of growth at 10 µM is under 20%.

test system: PC-3; assay: Cytotoxicity against human PC3 cells assessed as growth inhibition at 10 uM after 48 hrs by SRB assay relative to control; assay type: functional; details: PC-3, 48 h, read-out: GI

With `O=c1oc2cc(NCCN3CCOCC3)ccc2cc1-c1nc2ccccc2[nH]1` as the molecule, how does the inhibition of growth at 10 µM read?
The inhibition of growth at 10 µM was under 20%.

test system: UO-31; assay: Cytotoxicity against human UO31 cells assessed as growth inhibition at 10 uM after 48 hrs by SRB assay relative to control; assay type: functional; details: UO-31, 48 h, read-out: GI

With `O=c1oc2cc(NCCN3CCOCC3)ccc2cc1-c1nc2ccccc2[nH]1` as the molecule, how does the inhibition of growth at 10 µM read?
The inhibition of growth at 10 µM was 34.3%.

test system: SN12C; assay: Cytotoxicity against human SN12C cells assessed as growth inhibition at 10 uM after 48 hrs by SRB assay relative to control; assay type: functional; details: read-out: GI

For `O=c1oc2cc(NCCN3CCOCC3)ccc2cc1-c1nc2ccccc2[nH]1`, which inhibition of growth at 10 µM is on record?
Its inhibition of growth at 10 µM is under 20%.

test system: ACHN; assay: Cytotoxicity against human ACHN cells assessed as growth inhibition at 10 uM after 48 hrs by SRB assay relative to control; assay type: functional; details: read-out: GI

With `O=c1oc2cc(NCCN3CCOCC3)ccc2cc1-c1nc2ccccc2[nH]1` as the molecule, how does the inhibition of growth at 10 µM read?
The inhibition of growth at 10 µM was under 20%.

test system: SK-OV-3; assay: Cytotoxicity against human SKOV3 cells assessed as growth inhibition at 10 uM after 48 hrs by SRB assay relative to control; assay type: functional; details: SK-OV-3, 48 h, read-out: GI

For `O=c1oc2cc(NCCN3CCOCC3)ccc2cc1-c1nc2ccccc2[nH]1`, which inhibition of growth at 10 µM is on record?
The inhibition of growth at 10 µM was under 20%.

test system: A498; assay: Cytotoxicity against human A498 cells assessed as growth inhibition at 10 uM after 48 hrs by SRB assay relative to control; assay type: functional; details: A498, 48 h, read-out: GI

For `O=c1oc2cc(NCCN3CCOCC3)ccc2cc1-c1nc2ccccc2[nH]1`, which inhibition of growth at 10 µM is on record?
Its inhibition of growth at 10 µM is under 20%.

test system: not listed separately; assay: Cytotoxicity against human NCI-ADR-RES cells assessed as growth inhibition at 10 uM after 48 hrs by SRB assay relative to control; assay type: functional; details: read-out: GI

For `O=c1oc2cc(NCCN3CCOCC3)ccc2cc1-c1nc2ccccc2[nH]1`, which inhibition of growth at 10 µM is on record?
The inhibition of growth at 10 µM was under 20%.

test system: OVCAR-8; assay: Cytotoxicity against human OVCAR8 cells assessed as growth inhibition at 10 uM after 48 hrs by SRB assay relative to control; assay type: functional; details: OVCAR-8, 48 h, read-out: GI

With `O=c1oc2cc(NCCN3CCOCC3)ccc2cc1-c1nc2ccccc2[nH]1` as the molecule, how does the inhibition of growth at 10 µM read?
Its inhibition of growth at 10 µM is under 20%.

test system: OVCAR-4; assay: Cytotoxicity against human OVCAR4 cells assessed as growth inhibition at 10 uM after 48 hrs by SRB assay relative to control; assay type: functional; details: OVCAR-4, 48 h, read-out: GI

For `O=c1oc2cc(NCCN3CCOCC3)ccc2cc1-c1nc2ccccc2[nH]1`, which inhibition of growth at 10 µM is on record?
Its inhibition of growth at 10 µM is under 20%.

test system: IGROV-1; assay: Cytotoxicity against human IGROV1 cells assessed as growth inhibition at 10 uM after 48 hrs by SRB assay relative to control; assay type: functional; details: IGROV-1, 48 h, read-out: GI

For `O=c1oc2cc(NCCN3CCOCC3)ccc2cc1-c1nc2ccccc2[nH]1`, which inhibition of growth at 10 µM is on record?
The inhibition of growth at 10 µM was under 20%.

test system: UACC-62; assay: Cytotoxicity against human UACC62 cells assessed as growth inhibition at 10 uM after 48 hrs by SRB assay relative to control; assay type: functional; details: UACC-62, 48 h, read-out: GI

Which inhibition of growth at 10 µM does the source give for `O=c1oc2cc(NCCN3CCOCC3)ccc2cc1-c1nc2ccccc2[nH]1` here?
Its inhibition of growth at 10 µM is under 20%.

test system: M14; assay: Cytotoxicity against human M14 cells assessed as growth inhibition at 10 uM after 48 hrs by SRB assay relative to control; assay type: functional; details: M14, 48 h, read-out: GI

For `O=c1oc2cc(NCCN3CCOCC3)ccc2cc1-c1nc2ccccc2[nH]1`, which inhibition of growth at 10 µM is on record?
The inhibition of growth at 10 µM was under 20%.

test system: Malme-3M; assay: Cytotoxicity against human MALME-3M cells assessed as growth inhibition at 10 uM after 48 hrs by SRB assay relative to control; assay type: functional; details: read-out: GI

For `O=c1oc2cc(NCCN3CCOCC3)ccc2cc1-c1nc2ccccc2[nH]1`, which inhibition of growth at 10 µM is on record?
The inhibition of growth at 10 µM was under 20%.

test system: U-251; assay: Cytotoxicity against human U251 cells assessed as growth inhibition at 10 uM after 48 hrs by SRB assay relative to control; assay type: functional; details: U-251, 48 h, read-out: GI

Which inhibition of growth at 10 µM does the source give for `O=c1oc2cc(NCCN3CCOCC3)ccc2cc1-c1nc2ccccc2[nH]1` here?
Its inhibition of growth at 10 µM is under 20%.

test system: SNB-75; assay: Cytotoxicity against human SNB75 cells assessed as growth inhibition at 10 uM after 48 hrs by SRB assay relative to control; assay type: functional; details: SNB-75, 48 h, read-out: GI

Which inhibition of growth at 10 µM does the source give for `O=c1oc2cc(NCCN3CCOCC3)ccc2cc1-c1nc2ccccc2[nH]1` here?
Its inhibition of growth at 10 µM is 22.9%.

test system: SF-539; assay: Cytotoxicity against human SF539 cells assessed as growth inhibition at 10 uM after 48 hrs by SRB assay relative to control; assay type: functional; details: SF-539, 48 h, read-out: GI

Which inhibition of growth at 10 µM does the source give for `O=c1oc2cc(NCCN3CCOCC3)ccc2cc1-c1nc2ccccc2[nH]1` here?
Its inhibition of growth at 10 µM is under 20%.

test system: SF-268; assay: Cytotoxicity against human SF268 cells assessed as growth inhibition at 10 uM after 48 hrs by SRB assay relative to control; assay type: functional; details: SF-268, 48 h, read-out: GI

Which inhibition of growth at 10 µM does the source give for `O=c1oc2cc(NCCN3CCOCC3)ccc2cc1-c1nc2ccccc2[nH]1` here?
The inhibition of growth at 10 µM was under 20%.

test system: SW-620; assay: Cytotoxicity against human SW620 cells assessed as growth inhibition at 10 uM after 48 hrs by SRB assay relative to control; assay type: functional; details: SW-620, 48 h, read-out: GI

For `O=c1oc2cc(NCCN3CCOCC3)ccc2cc1-c1nc2ccccc2[nH]1`, which inhibition of growth at 10 µM is on record?
Its inhibition of growth at 10 µM is under 20%.

test system: HCT-15; assay: Cytotoxicity against human HCT15 cells assessed as growth inhibition at 10 uM after 48 hrs by SRB assay relative to control; assay type: functional; details: HCT-15, 48 h, read-out: GI

Which inhibition of growth at 10 µM does the source give for `O=c1oc2cc(NCCN3CCOCC3)ccc2cc1-c1nc2ccccc2[nH]1` here?
Its inhibition of growth at 10 µM is under 20%.

test system: HCC 2998; assay: Cytotoxicity against human HCC2998 cells assessed as growth inhibition at 10 uM after 48 hrs by SRB assay relative to control; assay type: functional; details: HCC 2998, 48 h, read-out: GI

With `O=c1oc2cc(NCCN3CCOCC3)ccc2cc1-c1nc2ccccc2[nH]1` as the molecule, how does the inhibition of growth at 10 µM read?
The inhibition of growth at 10 µM was under 20%.

test system: HCT-116; assay: Cytotoxicity against human HCT116 cells assessed as growth inhibition at 10 uM after 48 hrs by SRB assay relative to control; assay type: functional; details: HCT-116, 48 h, read-out: GI

With `O=c1oc2cc(NCCN3CCOCC3)ccc2cc1-c1nc2ccccc2[nH]1` as the molecule, how does the inhibition of growth at 10 µM read?
Its inhibition of growth at 10 µM is under 20%.

test system: NCI-H23; assay: Cytotoxicity against human NCI-H23 cells assessed as growth inhibition at 10 uM after 48 hrs by SRB assay relative to control; assay type: functional; details: NCI-H23, 48 h, read-out: GI

Which inhibition of growth at 10 µM does the source give for `O=c1oc2cc(NCCN3CCOCC3)ccc2cc1-c1nc2ccccc2[nH]1` here?
The inhibition of growth at 10 µM was under 20%.

test system: NCI-H226; assay: Cytotoxicity against human NCI-H226 cells assessed as growth inhibition at 10 uM after 48 hrs by SRB assay relative to control; assay type: functional; details: NCI-H226, 48 h, read-out: GI

With `O=c1oc2cc(NCCN3CCOCC3)ccc2cc1-c1nc2ccccc2[nH]1` as the molecule, how does the inhibition of growth at 10 µM read?
The inhibition of growth at 10 µM was under 20%.

test system: HOP-62; assay: Cytotoxicity against human HOP62 cells assessed as growth inhibition at 10 uM after 48 hrs by SRB assay relative to control; assay type: functional; details: HOP-62, 48 h, read-out: GI

For `O=c1oc2cc(NCCN3CCOCC3)ccc2cc1-c1nc2ccccc2[nH]1`, which inhibition of growth at 10 µM is on record?
Its inhibition of growth at 10 µM is under 20%.

test system: HOP-92; assay: Cytotoxicity against human HOP92 cells assessed as growth inhibition at 10 uM after 48 hrs by SRB assay relative to control; assay type: functional; details: HOP-92, 48 h, read-out: GI

Which inhibition of growth at 10 µM does the source give for `O=c1oc2cc(NCCN3CCOCC3)ccc2cc1-c1nc2ccccc2[nH]1` here?
Its inhibition of growth at 10 µM is 23.3%.

test system: RPMI-8226; assay: Cytotoxicity against human RPMI8226 cells assessed as growth inhibition at 10 uM after 48 hrs by SRB assay relative to control; assay type: functional; details: RPMI-8226, 48 h, read-out: GI

Which inhibition of growth at 10 µM does the source give for `O=c1oc2cc(NCCN3CCOCC3)ccc2cc1-c1nc2ccccc2[nH]1` here?
The inhibition of growth at 10 µM was under 20%.

test system: MOLT-4; assay: Cytotoxicity against human MOLT4 cells assessed as growth inhibition at 10 uM after 48 hrs by SRB assay relative to control; assay type: functional; details: MOLT-4, 48 h, read-out: GI

For `O=c1oc2cc(NCCN3CCOCC3)ccc2cc1-c1nc2ccccc2[nH]1`, which inhibition of growth at 10 µM is on record?
Its inhibition of growth at 10 µM is under 20%.

test system: HL-60(TB); assay: Cytotoxicity against human HL-60(TB) cells assessed as growth inhibition at 10 uM after 48 hrs by SRB assay relative to control; assay type: functional; details: HL-60, 48 h, read-out: GI

Which inhibition of growth at 10 µM does the source give for `O=c1oc2cc(NCCN3CCOCC3)ccc2cc1-c1nc2ccccc2[nH]1` here?
The inhibition of growth at 10 µM was under 20%.

test system: K562; assay: Cytotoxicity against human K562 cells assessed as growth inhibition at 10 uM after 48 hrs by SRB assay relative to control; assay type: functional; details: K562, 48 h, read-out: GI

With `O=c1oc2cc(NCCN3CCOCC3)ccc2cc1-c1nc2ccccc2[nH]1` as the molecule, how does the inhibition of growth at 10 µM read?
Its inhibition of growth at 10 µM is under 20%.

test system: CCRF-CEM; assay: Cytotoxicity against human CCRF-CEM cells assessed as growth inhibition at 10 uM after 48 hrs by SRB assay relative to control; assay type: functional; details: read-out: GI

Which inhibition of growth at 10 µM does the source give for `O=c1oc2cc(NCCN3CCOCC3)ccc2cc1-c1nc2ccccc2[nH]1` here?
The inhibition of growth at 10 µM was under 20%.
